The target in assay [1] is T1, BTK enzyme (full-length BTK, hBTK) (Homo sapiens, UniProt Q06187).
T1 construct: recombinant protein from baculovirus-transfected Sf9 cells: full-length BTK, 6HIS-tag cleaved; 6HIS (cleaved yes); made in house; host or cells: baculovirus-transfected Sf9 cells
As to the kind of experiment: Btk enzyme activity assay (LANCE TR-FRET). The assay is classed as biochemical. Particulars: 50 pM hBTK, 25 μM ATP, 60 minute compound and enzyme incubation, read-out: BTK binding IC50. Here is the method: BTK enzymatic activity was determined with the LANCE (Lanthanide Chelate Excite) TR-FRET (Time-resolved fluorescence resonance energy transfer) assay. […] To each well of a black non-binding surface Corning 384-well microplate (Corning Catalog #3820), 5 nL of compound (2000 fold dilution in final assay volume of 10 μL) was dispensed, followed by the addition of 7.5 μL of 1× kinase buffer (50 mM Hepes 7.5, 10 mM MgCl2, 0.01% Brij-35, 1 mM EGTA, 0.05% BSA & 1 mM DTT) containing 5.09 pg/μL (66.67 pM) of BTK enzyme (recombinant protein from baculovirus-transfected Sf9 cells: full-length BTK, 6HIS-tag cleaved). Following a 60 minute compound and enzyme incubation, each reaction was initiated by the addition of 2.5 μL 1× kinase buffer containing 8 μM biotinylated “A5” peptide (Biotin-[…]-NH2) (SEQ.ID.NO.: 1), and 100 μM ATP. The final reaction in each well of 10 μL consists of 50 pM hBTK, 2 μM biotin-A5-peptide, and 25 μM ATP. Phosphorylation reactions were allowed to proceed for 120 minutes. Reactions were immediately quenched by the addition of 20 uL of 1× quench buffer (15 mM EDTA, 25 mM Hepes 7.3, and 0.1% Triton X-100) containing detection reagents (0.626 nM of LANCE-Eu-W1024-anti-phosphoTyrosine antibody, PerkinElmer and 86.8 nM of Streptavidin-conjugated Dylight 650, Dyomics/ThermoFisher Scientific). After 60 minutes incubation with detection reagents, reaction plates were read on a PerkinElmer EnVision plate reader using standard TR-FRET protocol. Briefly, excitation of donor molecules (Eu-chelate:anti-phospho-antibody) with a laser light source at 337 nm produces energy that can be transferred to Dylight-650 acceptor molecules if this donor:acceptor pair is within close proximity. Fluorescence intensity at both 665 nm (acceptor) and 615 nm (donor) are measured and a TR-FRET ratio calculated for each well (acceptor intensity/donor intensity). IC50 values were determined by 4 parameter robust fit of TR-FRET ratio values vs. (Log10) compound concentrations.
The following Table 2 provides specific IC50 values for all the examples. The IC50 values set forth below were determined according to Assay method described above.

The test system of assay [2] is adenosine uptake into HeLa cells. As to the kind of experiment: [3H]Adenosine uptake assay in HeLa cells. The assay is classed as cell-based. Particulars: 60 minutes uptake, read-out: ADU inhibition IC50 (adenosine uptake inhibition potency). As to the method:
Compounds were also screened in an adenosine uptake functional cellular assay using the protocol described below.
Adenosine uptake activity was determined by monitoring the accumulation of tritiated adenosine into HeLa cells (ATCC catalog # CCL-2) using a PMT-based radiometric detection instrument. In this assay, the potency (IC50) of each compound was determined from a ten point (1:3 serial dilution; final compound concentration range in assay from 10 μM to 0.032 nM) titration curve using the following outlined procedure. To each well of a 96-well CytoStar-T scintillating microplate (Perkin Elmer Catalog # RPNQ0163), 25 000 HeLa cells in 100 μL of growth medium comprising: Minimum Essential Media (Life Technologies Catalog # 11095-080)+10% (v/v) foetal bovine serum (FBS; Sigma Aldrich Catalog # F2442) was added. These cells were incubated overnight at 37° C. in a humidified atmosphere with 5% (v/v) CO2. After this time the growth medium was removed and replaced with 40 μL assay medium comprising: Hanks balanced salts solution (HBSS; Thermo Fisher Catalog # SH30268.01)+5% (v/v) FBS. Compound stock solutions in DMSO were diluted in assay medium to 2.5× final compound concentration maintaining a constant DMSO concentration of 0.25% (v/v). 40 μL of compound in assay medium was dispensed into individual wells of the Cytostar-T plates and the plates were incubated for 30 minutes under ambient laboratory conditions. Following this incubation, 20 μL of 500 nM [^3H]adenosine (American Radiolabeled Chemicals Inc. Catalog # ART0287) in assay medium was added and incubated for a further 60 minutes under ambient laboratory conditions. The amount of radiolabel accumulation was then determined using a Perkin Elmer Topcount NXT microplate reader. In brief, HeLa cells adhere to the bottom of the Cytostar-T plate, uptake of [^3H]adenosine into these cells brings the radiolabel into sufficient proximity to excite the scintillant in the base of the plates. These events are captured by single PMT, time-resolved coincidence counting. IC50 values were determined by 4 parameter robust fit of counts per second values vs. (Log10) compound concentrations.

pIC50: −log10 of the molar value. Where two headings read alike, the source gives them in different places.

T1 sequence (Q06187 whole entry): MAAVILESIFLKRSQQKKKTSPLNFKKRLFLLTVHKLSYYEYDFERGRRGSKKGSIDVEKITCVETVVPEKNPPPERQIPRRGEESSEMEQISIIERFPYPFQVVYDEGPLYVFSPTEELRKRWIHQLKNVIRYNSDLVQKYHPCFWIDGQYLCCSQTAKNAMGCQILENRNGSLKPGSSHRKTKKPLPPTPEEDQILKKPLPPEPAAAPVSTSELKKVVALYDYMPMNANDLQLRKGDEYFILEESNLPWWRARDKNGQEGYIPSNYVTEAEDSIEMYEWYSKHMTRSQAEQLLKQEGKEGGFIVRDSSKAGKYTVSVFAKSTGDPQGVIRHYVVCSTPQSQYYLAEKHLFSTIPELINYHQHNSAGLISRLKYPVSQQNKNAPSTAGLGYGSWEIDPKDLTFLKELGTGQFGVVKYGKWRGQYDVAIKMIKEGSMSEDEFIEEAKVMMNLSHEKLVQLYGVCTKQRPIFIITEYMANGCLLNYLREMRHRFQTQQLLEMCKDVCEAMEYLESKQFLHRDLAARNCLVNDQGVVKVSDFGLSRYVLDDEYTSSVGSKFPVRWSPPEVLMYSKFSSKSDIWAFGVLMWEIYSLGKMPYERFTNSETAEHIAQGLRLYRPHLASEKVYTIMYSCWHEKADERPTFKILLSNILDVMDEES

For the compound `CCOc1cc(C(=O)Nc2cc(C(F)(F)F)ccn2)ccc1-c1nc([C@H]2CC[C@H]3N(C2)C(=O)CC32CC2)n2ccnc(N)c12` [Compound 19, 4-{8-amino-3-[(6′S,8a′R)-3′-oxohexahydro-5′H-spiro[cyclopropane-1,1′-indolizin]-6′-yl]imidazo[1,5-a]pyrazin-1-yl}-3-ethoxy-N-[4-(trifluoromethyl)pyridin-2-yl]benzamide], the negative-log IC50 (pIC50) is 8.42 in assay [1] and 6.21 in assay [2] (Homo sapiens, HeLa).
Turning to `CCOc1cc(C(=O)Nc2cc(C(F)(F)F)ccn2)ccc1-c1nc([C@H]2CC[C@H]3N(C2)C(=O)C2(CC2)C3(F)F)n2ccnc(N)c12` [Compound 2, 4-(8-amino-3-((6′S,8a′R)-1′,1′-difluoro-3′-oxohexahydro-1′H-spiro[cyclopropane-1,2′-indolizin]-6′-yl)imidazo[1,5-a]pyrazin-1-yl)-3-ethoxy-N-(4-(trifluoromethyl)pyridin-2-yl)benzamide], the pIC50 in assay [1] is 7.93; in assay [2] (Homo sapiens, HeLa), 6.05.
For the compound `CCOc1cc(C(=O)Nc2cc(C(F)(F)F)ccn2)ccc1-c1nc([C@@H]2CC[C@@H]3N(C2)C(=O)C2(CC2)C3(F)F)n2ccnc(N)c12` [Compound 3, 4-(8-amino-3-((6′R,8a′S)-1′,1′-difluoro-3′-oxohexahydro-1′H-spiro[cyclopropane-1,2′-indolizin]-6′-yl)imidazo[1,5-a]pyrazin-1-yl)-3-ethoxy-N-(4-(trifluoromethyl)pyridin-2-yl)benzamide], the pIC50 in assay [1] was 9.00; in assay [2], 5.88.
`CCOc1cc(C(=O)Nc2cc(C(F)(F)F)ccn2)ccc1-c1nc([C@@H]2CC[C@H]3CNC4(CCC4)C(=O)N3C2)n2ccnc(N)c12` [Compound 17, 4-{8-amino-3-[(7′R,9a′S)-4′-oxohexahydro-2′H-spiro[cyclobutane-1,3′-pyrido[1,2-a]pyrazin]-7′-yl]imidazo[1,5-a]pyrazin-1-yl}-3-ethoxy-N-[4-(trifluoromethyl)pyridin-2-yl]benzamide]: the pIC50 is 9.30 in assay [1] and 5.77 in assay [2] (Homo sapiens, HeLa).
The matching figures for `CCOc1cc(C(=O)Nc2cc(C(F)(F)F)n(C)n2)cc(F)c1-c1nc(C2CCC3N(C2)C(=O)CC32CC2)n2c(F)cnc(N)c12` (stereo not shown) [Compound 22, 4-[8-amino-5-fluoro-3-(3′-oxohexahydro-5′H-spiro[cyclopropane-1,1′-indolizin]-6′-yl)imidazo[1,5-a]pyrazin-1-yl]-3-ethoxy-5-fluoro-N-[1-methyl-5-(trifluoromethyl)-1H-pyrazol-3-yl]benzamide]: 9.57 and 5.84.
Regarding `CCOc1cc(C(=O)Nc2cc(C(F)(F)F)ccn2)ccc1-c1nc([C@H]2CN3C(=O)[C@H]4CCCN4C[C@@H]3CO2)n2ccnc(N)c12` [Compound 35, 4-{8-amino-3-[(3R,6aR,11aR)-6-oxooctahydro-1H,6H-pyrrolo [1′,2′:4,5]pyrazino[2,1-c][1,4]oxazin-3-yl]imidazo[1,5-a]pyrazin-1-yl}-3-ethoxy-N-[4-(trifluoromethyl)pyridin-2-yl] benzamide], the pIC50 is 8.90 in assay [1] and 5.87 in assay [2] (Homo sapiens, HeLa).
The matching figures for `Nc1nccn2c([C@@H]3CC[C@H]4C(=O)C5(CC5)C(=O)N4C3)nc(-c3ccc(C(=O)Nc4cc(C5CC5)ccn4)cc3)c12` [Compound 9, 4-{8-amino-3-[(6′R,8a′S)-1′,3′-dioxohexahydrospiro[cyclopropane-1,2′-indolizin]-6′-yl]imidazo[1,5-a]pyrazin-1-yl}-N-(4-cyclopropylpyridin-2-yl)benzamide]: 8.79 and 6.74.
With `CCOc1cc(C(=O)Nc2cc(C(F)(F)F)n(C)n2)cc(F)c1-c1nc(C2CCC3N(C2)C(=O)CC32CC2)n2c(F)cnc(N)c12` (stereo not shown) [Compound 23, 4-[8-amino-5-fluoro-3-(3′-oxohexahydro-5′H-spiro[cyclopropane-1,1′-indolizin]-6′-yl)imidazo[1,5-a]pyrazin-1-yl]-3-ethoxy-5-fluoro-N-[1-methyl-5-(trifluoromethyl)-1H-pyrazol-3-yl]benzamide], the pIC50 in assay [1] was 8.23; in assay [2] it was 5.68.
As to `CCOc1cc(C(=O)Nc2cc(C(F)(F)F)ccn2)ccc1-c1nc([C@@H]2CC[C@H]3C(=O)C4(CC4)C(=O)N3C2)n2ccnc(N)c12` [Compound 5, 4-{8-amino-3-[(6′R,8a′S)-1′,3′-dioxohexahydrospiro[cyclopropane-1,2′-indolizin]-6′-yl]imidazo[1,5-a]pyrazin-1-yl}-3-ethoxy-N-[4-(trifluoromethyl)pyridin-2-yl]benzamide], the pIC50 in assay [1] is 8.83; in assay [2] (Homo sapiens, HeLa) it was 6.04.
The matching figures for `COc1cc(C(=O)Nc2cc(C(F)(F)F)ccn2)ccc1-c1nc([C@H]2CC[C@@H]3CC4(CC4)C(=O)N3C2)n2ccnc(N)c12` [Compound 47, 4-{8-amino-3-[(6′S,8a′R)-3′-oxohexahydrospiro[cyclopropane-1,2′-indolizin]-6′-yl]imidazo[1,5-a]pyrazin-1-yl}-3-methoxy-N-[4-(trifluoromethyl)pyridin-2-yl]benzamide]: 9.28 and 6.28.
The matching figures for `Nc1nccn2c([C@H]3CC[C@H]4N(C3)C(=O)C3(CC3)C4(F)F)nc(-c3ccc(C(=O)Nc4cc(C(F)(F)F)ccn4)cc3)c12` [Compound 31, 4-{8-amino-3-[(6′S,8a′R)-1′,1′-difluoro-3′-oxohexahydrospiro[cyclopropane-1,2′-indolizin]-6′-yl]imidazo[1,5-a]pyrazin-1-yl}-N-[4-(trifluoromethyl)pyridin-2-yl]benzamide]: 9.39 and 6.84.
The matching figures for `CCOc1cc(C(=O)Nc2cc(C(F)(F)F)ccn2)ccc1-c1nc([C@@H]2CC[C@H]3[C@@H](OC)C4(CC4)C(=O)N3C2)n2ccnc(N)c12` [Compound 14, 4-(8-amino-3-((1′S,6′R,8a′S)-1′-methoxy-3′-oxohexahydro-1′H-spiro[cyclopropane-1,2′-indolizin]-6′-yl)imidazo[1,5-a]pyrazin-1-yl)-3-ethoxy-N-(4-(trifluoromethyl)pyridin-2-yl)benzamide]: 8.89 and 6.08.
`CCOc1cc(C(=O)Nc2cc(C3CC3)ccn2)cc(F)c1-c1nc([C@@H]2CC[C@@H]3N(C2)C(=O)CC32CC2)n2ccnc(N)c12` [Compound 21, 4-{8-amino-3-[(6′R,8a′S)-3′-oxohexahydro-5′H-spiro[cyclopropane-1,1′-indolizin]-6′-yl]imidazo[1,5-a]pyrazin-1-yl}-N-(4-cyclopropylpyridin-2-yl)-3-ethoxy-5-fluorobenzamide]: the negative logarithm of the IC50 (pIC50) was 9.80 in assay [1] and 5.97 in assay [2] (Homo sapiens, HeLa).
The matching figures for `CCOc1cc(C(=O)Nc2cc(C(F)(F)F)ccn2)ccc1-c1nc([C@H]2CC[C@@H]3CC4(CC4)C(=O)N3C2)n2ccnc(N)c12` [Compound 48, 4-{8-amino-3-[(6′S,8a′R)-3′-oxohexahydrospiro[cyclopropane-1,2′-indolizin]-6′-yl]imidazo[1,5-a]pyrazin-1-yl}-3-ethoxy-N-[4-(trifluoromethyl)pyridin-2-yl]benzamide]: 8.93 and 6.00.

One may read the pIC50 as the IC50 on a negative log10 scale, so that one unit is a factor of ten.

These data come from patent US10130630B2, “BTK inhibitors” (MERCK SHARP & DOHME CORP., priority 2014, dated 2018).
